The text below walks through data of publication PMC12366525, “Characterization of allosteric modulators that disrupt androgen receptor co-activator protein-protein interactions to alter transactivation–Drug leads for metastatic castration resistant prostate cancer” (SLAS discovery : advancing life sciences R & D, 2023).

Where “and” joins values, the source holds several entries; their conditions need not be identical. Identical values can stand only once.

The target in data set [1] is T1, AR-LBD::TIF2-Box III-LXXLL-Peptide (Homo sapiens, UniProt P10275).
T1 construct: The pET28a-AR-LBD (622–919) construct [78] was a gift; made in house
T1 sequence (P10275 622-919): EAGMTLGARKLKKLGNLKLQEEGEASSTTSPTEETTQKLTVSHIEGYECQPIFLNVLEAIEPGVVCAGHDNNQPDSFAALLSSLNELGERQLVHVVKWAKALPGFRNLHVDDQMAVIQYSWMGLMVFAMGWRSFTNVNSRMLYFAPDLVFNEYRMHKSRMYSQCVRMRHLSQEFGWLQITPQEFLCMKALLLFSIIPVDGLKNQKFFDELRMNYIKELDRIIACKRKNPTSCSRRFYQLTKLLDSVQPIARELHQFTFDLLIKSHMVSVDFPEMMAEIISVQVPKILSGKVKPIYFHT
Put plainly: AR-LBD::TIF2-Box III-LXXLL-peptide AlphaScreen binding assay. The settings on record: DHT-induced TIF2 box 3 LXXLL-peptide binding to recombinant AR-LBD. The text has this: The pET28a-AR-LBD (622–919) construct was a gift from Dr. Fletterick and Dr. Nguyen of University of California San Francisco. Biotinylated (Biotin-HN-[…]-CONH2) and non-biotinylated TIF2-box-III (738–756) peptide (H2N-[…]-CONH2) were synthesized by the Peptide & Peptoid Synthesis Facility, at the University of Pittsburgh Health Sciences Core Research Facilities. ALPHAScreen streptavidin donor beads (SA-DB) and nickel chelate acceptor beads (Ni-AB) were purchased from Perkin Elmer (Waltham, MA). The assay was performed in 384-well white opaque plates (Greiner BioOne, #781080). […] 18 uL of the SA-DB bound biotinylated TIF2 peptide mixture was added to the assay plate before 5 μL of compounds were transferred into assay wells and 27 μL of the AlphaScreen donor and acceptor bead mixture was added to the plate. 32 wells containing 0.5% DMSO provided maximum controls and 32 wells containing a 500-fold excess of unlabeled TIF2-box-III (75 μM) were used as minimum controls. The combined bead-protein-peptide-compound mixture was incubated for 1 h at room temperature in the dark, and then the RLU’s were acquired at 520 nm after excitation at 680 nm on an Envision plate reader (Perkin Elmer, Waltham, MA) as described previously.
Background: In Alpha technology, singlet oxygen from a donor bead excites a nearby acceptor bead.

A short description of data set [2]: C4–2 PSA6.1-Luc viability counter screen. The format is cell-based. The settings on record: human, C4–2 cells (C4–2 PSA6.1-Luc); cytotoxicity counter screen; read-out: C4–2 PSA6.1-Luc viability CS GI50.
The target in data set [3] is T2, AR-V7 (Homo sapiens, UniProt P10275).
T2 construct: expressed in transfected cells; host or cells: PC3 cells stably expressing AR-V7-GFP
T2 sequence (P10275 1-644 isoform P10275-3): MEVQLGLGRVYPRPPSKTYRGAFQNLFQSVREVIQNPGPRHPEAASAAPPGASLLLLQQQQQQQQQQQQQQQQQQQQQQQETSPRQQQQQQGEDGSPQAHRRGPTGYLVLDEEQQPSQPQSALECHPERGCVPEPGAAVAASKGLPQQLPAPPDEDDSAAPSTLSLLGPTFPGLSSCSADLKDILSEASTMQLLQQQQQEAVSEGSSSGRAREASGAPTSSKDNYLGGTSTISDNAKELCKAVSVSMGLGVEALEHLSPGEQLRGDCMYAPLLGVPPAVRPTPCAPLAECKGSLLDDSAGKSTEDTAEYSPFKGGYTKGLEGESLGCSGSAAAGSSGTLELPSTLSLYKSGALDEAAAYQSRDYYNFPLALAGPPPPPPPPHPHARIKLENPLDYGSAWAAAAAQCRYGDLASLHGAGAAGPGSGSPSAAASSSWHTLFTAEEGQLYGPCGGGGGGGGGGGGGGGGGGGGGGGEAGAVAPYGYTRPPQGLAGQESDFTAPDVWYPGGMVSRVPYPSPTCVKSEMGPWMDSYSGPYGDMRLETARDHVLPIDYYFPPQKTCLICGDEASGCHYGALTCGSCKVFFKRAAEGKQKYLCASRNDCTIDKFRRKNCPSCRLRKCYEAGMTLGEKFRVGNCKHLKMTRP
The experiment in a line: PSA6.1 promoter driven luciferase reporter assay in PC3-AR-V7-GFP cells. The format is cell-based. The settings on record: constitutive, 24 h; read-out: PC-3-ARV7-GFP PSA6.1-Luc Reporter IC50. On the procedure: PC3-AR-V7-GFP cells were bulk transfected with a mixture of Fugene HD and the PSA-6.1-Luc reporter plasmid (20 ng/well) combined at a 3:1 (μL:μg) ratio in Opti-MEM (Gibco, Gaithersburg, MD) that had been incubated for 25 min at RT before being added to PC3-AR-V7-GFP cells that were suspended in RPMI 1640 (Gibco) media containing 1% L-glutamine (Invitrogen), and 10% fetal bovine serum (Gemini Bio-products). Bulk transfected PC3-AR-V7-GFP cells were seeded into white opaque 384-well assay plates (Greiner Bio-one, #781080) at 3000 cells per well in a volume of 40 μL and incubated at 5% CO2, 37 °C, and 95% humidity for 24 h. After 24 h, 5 μL of compounds were transferred to assay wells and the plates were returned to the incubator for an additional 24 h before 25 μL of BrightGlo luciferase reagent (Promega) was added to the wells and the RLU’s were captured on a SpectraMax M5e plate reader (Molecular Devices LLC) as described previously.

For data set [4], the target named is T2, AR-V7. The experiment in a line: UBE2C promoter driven luciferase reporter assay in PC3-AR-V7-GFP cells. It counts as cell-based. The settings on record: constitutive, 24 h; read-out: PC-3-ARV7-GFP UBE2C-Luc Reporter IC50. On the procedure: The pGL4.28-UBE2C 20bpX3 luciferase reporter plasmid was provided by Dr. Yan Dong from Tulane University. Fugene HD and the UBE2C-Luc plasmid (10 ng/well) were combined at a 3:1 (μL:μg) ratio, in Opti-MEM and incubated for 25 min at RT before being added to PC3-AR-V7-GFP cells that were suspended in RPMI 1640 (Gibco) media containing 1% L-glutamine (Invitrogen), and 10% fetal bovine serum (Gemini Bio-products). Bulk transfected PC3-AR-V7-GFP cells were seeded into white opaque 384-well assay plates (Greiner Bio-one, #781080) at a density of 3000 cell per well in a volume of 40 μL and incubated at 5% CO2, 37 °C, and 95% humidity for 24 h. After 24 h, 10 μL of compounds were transferred to assay wells and the plates were returned to the incubator for an additional 24 h before 25 μL of BrightGlo luciferase reagent (Promega) was added to the wells and the RLU’s were captured on a SpectraMax M5e plate reader (Molecular Devices LLC) as described previously.
For orientation: A reporter such as luciferase makes a cellular process visible.

Broadly, the IC50 is the point on the concentration scale where inhibition reaches its midpoint. As a reminder, the GI50 is the concentration giving 50% growth inhibition. Regarding `Cc1ccccc1-c1cc(O)c2c(c1)CN(c1nc(C(N)=O)cs1)CCO2` [S1–1], the IC50 in data set [1] was determined as 21.4 µM; in data set [3], 33.5 µM; in data set [4] it was 34.7 µM. The GI50 in data set [2] was above 100 µM.
As for `Cc1ccccc1-c1cc(O)c2c(c1)CN(c1nccs1)CCO2` [S1–3], the IC50 in data set [1] stood at 44.1 µM.
Turning to `Cc1nsc(NC(=O)N2CCC(Sc3ccccc3C)CC2)n1` [S2–6], the IC50 was 64.2 µM in data set [1]; 8 µM and 7.88 µM in data set [3]; 14.5 µM in data set [4]. Moreover, the GI50 in data set [2] is above 100 µM.
Take `Cc1c(-c2ccccc2F)[nH]c2ccc(CNC(=O)CCc3cn[nH]c3)cc12` [S3–11]: the IC50 was 88.3 µM in data set [1], 10.7 µM in data set [3] and 21 µM in data set [4]. The GI50 in data set [2] is above 100 µM.
For `Cc1c(-c2ccccc2F)[nH]c2ccc(CNC(=O)CCc3cnccn3)cc12` [S3–12], in data set [2], the GI50 was above 100 µM. The IC50 in data set [3] was 8.17 µM; in data set [4], 17.7 µM.
`CC(=O)NCCC(=O)NCc1ccc2[nH]c(-c3ccccc3F)c(C)c2c1` [S3–13]: the IC50 in data set [1] stood at 91.6 µM; in data set [3], 51.7 µM. For the same compound, the GI50 in data set [2] is above 100 µM.
For `Cc1c(-c2ccccc2F)[nH]c2ccc(CNC(=O)c3ccc(CO)o3)cc12` [S3–14], the IC50 was determined as 28.3 µM in data set [1], 43.9 µM in data set [3] and 46 µM in data set [4]. The GI50 in data set [2] was above 100 µM.
In the case of `Cc1c(-c2ccc(F)cc2)[nH]c2ccc(CNC(=O)c3ccc(CO)o3)cc12` [S3–15], the IC50 in data set [1] is 19.6 µM; in data set [3], 10.1 µM; in data set [4], 18.5 µM. Further, in data set [2], the GI50 was above 100 µM.
